Results published in the Bradley open melting point set (2014).

melting point [°C] | SMILES
79 | Cc1ccc(S(=O)(=O)CCCl)cc1 [2-chloroethyl p-tolyl sulfone]
160 | OB(O)c1cccnc1Cl [2-chloropyridine-3-boronic acid]
162 | OB(O)c1ccnc(Cl)c1 [2-chloropyridine-4-boronic acid]
48 | O=Cc1ccnc(Cl)c1 [2-chloropyridine-4-carboxaldehyde]
65 | OCc1ccnc(Cl)c1 [2-chloropyridine-4-methanol]
146 | OB(O)c1cc2ccccc2nc1Cl [2-chloroquinoline-3-boronic acid]
67 | N#Cc1ccccc1S(=O)(=O)Cl [2-cyanobenzenesulfonyl chloride]
-53 | O=C1C=CCCC1 [2-cyclohexene-1-one]
-2 | CCCCCCCCC(C)O (stereo unspecified) [2-decanol] [listing 1 of 2 here]
-5 | CCCCCCCCC(C)O (stereo unspecified) [2-decanol] [listing 2 of 2 here]
3 | CCCCCCCCC(C)=O [2-decanone]
85 | O=CC[C@H](O)[C@H](O)CO [2-deoxy-D-ribose]
144 | CCOc1ccc2ccccc2c1C(=O)O [2-ethoxy-1-naphthoic acid]
-52 | CCC(CC)CO [2-ethyl-1-butanol]
97 | CCc1ccccc1B(O)O [2-ethylbenzeneboronic acid]
-59 | CCCCC(CC)C(=O)O (stereo unspecified) [2-ethylhexanoic acid]
-18 | CCc1ccccc1O [2-ethylphenol]
114 | OB(O)c1ccc(C(F)(F)F)cc1F [2-fluoro-4-(trifluoromethyl)benzeneboronic acid]
107 | OB(O)c1cc(C(F)(F)F)ccc1F [2-fluoro-5-(trifluoromethyl)benzeneboronic acid]
170 | O=Cc1ccc(F)c(B(O)O)c1 [2-fluoro-5-formylbenzeneboronic acid]
86 | O=C(O)c1c(F)cccc1C(F)(F)F [2-fluoro-6-(trifluoromethyl)benzoic acid]
104 | OB(O)c1ccccc1F [2-fluorobenzeneboronic acid]

melting point [°C] | SMILES
74 | Fc1ccccc1-c1ccccc1 [2-fluorobiphenyl]
15 | Oc1ccccc1F [2-fluorophenol]
346 | O=C(O)c1ccnc(F)c1 [2-fluoropyridine-4-carboxylic acid]
92 | OB(O)c1cc2ccccc2nc1F [2-fluoroquinoline-3-boronic acid]
-87 | Cc1ccccc1F [2-fluorotoluene]
15 | COc1ccc(O)c(C=O)c1 [2-hydroxy-5-methoxybenzaldehyde]
6 | O=C(CO)c1ccccc1 [2-hydroxyacetophenone]
94 | N#Cc1ccccc1O [2-hydroxybenzonitrile]
89 | OCC1COc2ccccc2O1 (stereo unspecified) [2-hydroxymethyl-1,4-benzodioxane]
162 | O=C(O)c1ccccc1I [2-iodobenzoic acid]
79 | Sc1nccs1 [2-mercaptothiazole]
187 | COc1ccc2cc([N+](=O)[O-])ccc2c1C(=O)O [2-methoxy-6-nitronaphthalene-1-carboxylic acid]
30 | COc1ccccc1-c1ccccc1 [2-methoxybiphenyl] [listing 1 of 2 here]
31 | COc1ccccc1-c1ccccc1 [2-methoxybiphenyl] [listing 2 of 2 here]
137 | COc1ncccc1B(O)O [2-methoxypyridine-3-boronic acid]
-40 | CC(O)CC(C)(C)O (stereo unspecified) [2-methyl-2,4-pentanediol]
1 | CC(C)(C)S [2-methyl-2-propanethiol]
98 | Cc1occc1C(=O)O [2-methyl-3-furoic acid]
87 | CC1=C(c2ccccc2)c2ccccc2C1=O [2-methyl-3-phenyl-1H-inden-1-one]
164 | Cc1ccc2cc([N+](=O)[O-])ccc2n1 [2-methyl-6-nitroquinoline]
163 | Cc1ccccc1B(O)O [2-methylbenzeneboronic acid]
3 | Cc1nc2ccccc2o1 [2-methylbenzoxazole]

melting point [°C] | SMILES
0 | Cc1ccccc1-c1ccccc1 [2-methylbiphenyl]
6 | CCCCCCCCCCCCCCCC(C)C [2-methylheptadecane]
154 | Cc1ccccc1OCC(=O)O [2-methylphenoxyacetic acid]
-65 | CC(C)C=O [2-methylpropanal]
-69 | C=Cc1ccccc1C [2-methylstyrene]
-63 | Cc1cccs1 [2-methylthiophene]
107 | O=C(Oc1ccc2ccccc2c1)c1ccccc1 [2-naphthyl benzoate]
42 | N#Cc1ccc(C(F)(F)F)cc1[N+](=O)[O-] [2-nitro-4-(trifluoromethyl)benzonitrile]
45 | O=Cc1ccccc1[N+](=O)[O-] [2-nitrobenzaldehyde]
150 | O=[N+]([O-])c1ccccc1B(O)O [2-nitrobenzeneboronic acid]
72 | O=[N+]([O-])c1ccccc1CO [2-nitrobenzyl alcohol]
116 | O=C1Cc2c1cccc2[N+](=O)[O-] [2-nitrobicyclo[4.2.0]octa-1,3,5-trien-7-one]
158 | O=C(O)COc1ccccc1[N+](=O)[O-] [2-nitrophenoxyacetic acid]
-35 | CCCCCCCC(C)O (stereo unspecified) [2-nonanol]
-16 | CCCCCCC(C)=O [2-octanone]
-112 | CCCC(C)S (stereo unspecified) [2-pentanethiol]
156 | N#CC(=CNNc1ccccc1)c1ccccc1 [2-phenyl-3-(2-phenylhydrazino)prop-2-enenitrile]
38 | CCC(C(=O)O)c1ccccc1 (stereo unspecified) [2-phenylbutyric acid]
-27 | OCCc1ccccc1 [2-phenylethanol]
-6 | OCc1ccccn1 [2-pyridinemethanol]
12 | CCC(C)c1ccccc1O (stereo unspecified) [2-sec-Butylphenol]
25 | CCCCCCCCCCCC(C)O (stereo unspecified) [2-tridecanol]

melting point [°C] | SMILES
13 | CCCCCCCCCC(C)=O [2-undecanone]
106 | C=Cc1ccccc1B(O)O [2-vinylbenzeneboronic acid]
74 | CC(=O)c1ccc(Cl)c(Cl)c1 [3',4'-dichloroacetophenone]
130 | CCC(=O)c1cc(F)c(O)c(F)c1 [3',5'-difluoro-4'-hydroxypropiophenone]
119 | COc1cc(C(C)=O)cc(OC)c1O [3',5'-dimethoxy-4'-hydroxyacetophenone]
39 | CC(=O)c1ccc(F)c(Cl)c1 [3'-chloro-4'-fluoroacetophenone]
88 | CC(=O)Nc1cccc(F)c1 [3'-fluoroacetanilide]
-7 | COc1cccc(C(C)=O)c1 [3'-methoxyacetophenone]
78 | CC(=O)c1cccc([N+](=O)[O-])c1 [3'-nitroacetophenone]
131 | O=C(O)CCSCCC(=O)O [3,3'-thiodipropionic acid]
9 | O=C(O)CC(F)(F)F [3,3,3-trifluoropropionic acid]
-115 | C=CC(C)(C)C [3,3-dimethyl-1-butene]
228 | CC1(C)C=Nc2ccccc21 [3,3-dimethyl-3H-indole]
-134 | CCC(C)(C)CC [3,3-dimethylpentane]
27 | NCCC(c1ccccc1)c1ccccc1 [3,3-diphenylpropylamine]
124 | CC(=O)OCC(OC(C)=O)C(OC(C)=O)C(OC(C)=O)C(OC(C)=O)C(=O)CBr (stereo unspecified) [3,4,5,6,7-penta-O-acetyl-1-bromo-1-deoxyhept-2-ulose]
25 | O=Cc1cc(F)c(F)c(F)c1 [3,4,5-trifluorobenzaldehyde]
94 | COc1cc(C#N)cc(OC)c1OC [3,4,5-trimethoxybenzonitrile]
208 | O=C(O)c1ccc(Cl)c(Cl)c1 [3,4-Dichlorobenzoic acid]
219 | Nc1ccncc1N [3,4-diaminopyridine]

SMILES | melting point [°C]
OCCCl [2-chloroethanol] | -67
CCc1ccccc1N [2-ethylaniline] | -44
O=C(Cl)c1ccccc1F [2-fluorobenzoyl chloride] | 5
C#CC(C)(C)O [2-methyl-3-butyn-2-ol] | 3
Cc1ccc([N+](=O)[O-])cc1N [2-methyl-5-nitroaniline] | 107
Cc1cccc(C)c1[N+](=O)[O-] [2-nitro-m-xylene] | 15
COc1ccccc1[N+](=O)[O-] [2-nitroanisole] | 10
O=[N+]([O-])c1ccccc1CBr [2-nitrobenzyl bromide] | 47
O=[N+]([O-])c1ccccc1CCl [2-nitrobenzyl chloride] | 49
O=[N+]([O-])c1ccccc1CCl [2-nitrobenzyl_chloride] | 48
O=[N+]([O-])c1ccccc1O [2-nitrophenol] | 46
OCCOc1ccccc1 [2-phenoxyethanol] | 13
CCC(C)c1cc([N+](=O)[O-])cc([N+](=O)[O-])c1O (stereo unspecified) [2-sec-Butyl-4,6-dinitrophenol] | 55
CC(=O)C(C)(C)C [3,3-Dimethylbutan-2-one] | -52.5
CC(=O)C(C)(C)C [3,3-dimethyl-2-butanone] | -52
COc1cc(C=O)cc(OC)c1OC [3,4,5-trimethoxybenzaldehyde] | 75
COc1cc(C(=O)Cl)cc(OC)c1OC [3,4,5-trimethoxybenzoyl chloride] | 80
Nc1ccc(Cl)c(Cl)c1 [3,4-Dichloroaniline] | 72
Oc1ccc(Cl)c(Cl)c1 [3,4-Dichlorophenol] | 67
c1ccc2c(c1)cc1ccc3cccc4ccc2c1c34 [3,4-benzopyrene] | 179
